Test results reported in ChEMBL document CHEMBL3400021, “Systematic synthesis and anti-inflammatory activity of ω-carboxylated menaquinone derivatives--Investigations on identified and putative vitamin K₂ metabolites” (Bioorg Med Chem, 2015).

Assays:
[1] = test system: RAW264.7; test: Antiinflammatory activity in mouse RAW264.7 cells assessed as inhibition of LPS-induced IL-1beta level at 10 uM incubated for 24 hrs prior to LPS challenge measured after 3 hrs by qRT-PCR analysis relative to control; assay type: functional
[2] = test system: RAW264.7; test: Antiinflammatory activity in mouse RAW264.7 cells assessed as inhibition of LPS-induced IL-6 level at 10 uM incubated for 24 hrs prior to LPS challenge measured after 3 hrs by qRT-PCR analysis relative to control; assay type: functional
[3] = test system: RAW264.7; test: Antiinflammatory activity in mouse RAW264.7 cells assessed as inhibition of LPS-induced TNF-alpha level at 10 uM incubated for 24 hrs prior to LPS challenge measured after 3 hrs by qRT-PCR analysis relative to control; assay type: functional
[4] = test system: RAW264.7; test: Cytotoxicity against mouse RAW264.7 cells; assay type: cell-based
[5] = test system: RAW264.7; test: Antiinflammatory activity in mouse RAW264.7 cells assessed as inhibition of LPS-induced IL-1beta level at 1 uM incubated for 24 hrs prior to LPS challenge measured after 3 hrs by qRT-PCR analysis relative to control; assay type: functional
[6] = test system: RAW264.7; test: Antiinflammatory activity in mouse RAW264.7 cells assessed as inhibition of LPS-induced IL-6 level at 1 uM incubated for 24 hrs prior to LPS challenge measured after 3 hrs by qRT-PCR analysis relative to control; assay type: functional
[7] = test system: RAW264.7; test: Antiinflammatory activity in mouse RAW264.7 cells assessed as inhibition of LPS-induced TNF-alpha level at 1 uM incubated for 24 hrs prior to LPS challenge measured after 3 hrs by qRT-PCR analysis relative to control; assay type: functional
[8] = test system: RAW264.7; test: Antiinflammatory activity in mouse RAW264.7 cells assessed as inhibition of LPS-induced IL-1beta level at 5 uM incubated for 24 hrs prior to LPS challenge measured after 3 hrs by qRT-PCR analysis relative to control; assay type: functional
[9] = test system: RAW264.7; test: Antiinflammatory activity in mouse RAW264.7 cells assessed as inhibition of LPS-induced IL-6 level at 5 uM incubated for 24 hrs prior to LPS challenge measured after 3 hrs by qRT-PCR analysis relative to control; assay type: functional
[10] = test system: RAW264.7; test: Antiinflammatory activity in mouse RAW264.7 cells assessed as inhibition of LPS-induced TNF-alpha level at 5 uM incubated for 24 hrs prior to LPS challenge measured after 3 hrs by qRT-PCR analysis relative to control; assay type: functional

Structure (SMILES): CC1=C(C/C=C(\C)CC/C=C(\C)CC/C=C(\C)C(=O)O)C(=O)c2ccccc2C1=O
- inhibition at 10 µM [1]: 37%
- inhibition at 10 µM [2]: 46.3%
- inhibition at 10 µM [3]: 24.4%
- Activity [4]: Non-toxic

Structure (SMILES): CC1=C(C/C=C(\C)CC/C=C(\C)C(=O)O)C(=O)c2ccccc2C1=O
- inhibition at 1 µM [5]: 43.5%
- inhibition at 1 µM [6]: 47.7%
- inhibition at 1 µM [7]: 7.7%
- Activity [4]: Non-toxic

Structure (SMILES): CC1=C(CCC(C)C(=O)O)C(=O)c2ccccc2C1=O (stereo not drawn)
- inhibition at 1 µM [5]: 23.1%
- inhibition at 1 µM [6]: 20.6%
- inhibition at 1 µM [7]: 17.3%
- Activity [4]: Non-toxic

Structure (SMILES): CC1=C(C/C=C(\C)CC/C=C(\C)CC/C=C(\C)CCC(=O)O)C(=O)c2ccccc2C1=O
- inhibition at 10 µM [1]: 21.3%
- inhibition at 10 µM [2]: 10.6%
- inhibition at 10 µM [3]: 2.2%
- Activity [4]: Non-toxic

Structure (SMILES): CC1=C(C/C=C(\C)CC/C=C(\C)CCC(=O)O)C(=O)c2ccccc2C1=O
- inhibition at 5 µM [8]: 51.5%
- inhibition at 5 µM [9]: 52.1%
- inhibition at 5 µM [10]: 26.3%
- Activity [4]: Non-toxic

Structure (SMILES): CC1=C(C/C=C(\C)CCC(=O)O)C(=O)c2ccccc2C1=O
- inhibition at 5 µM [8]: 28.3%
- inhibition at 5 µM [9]: 29.8%
- inhibition at 5 µM [10]: 25.2%
- Activity [4]: Non-toxic

Structure (SMILES): CC1=C(C/C=C(\C)C(=O)O)C(=O)c2ccccc2C1=O
- inhibition at 10 µM [1]: 40.6%
- inhibition at 10 µM [2]: 34.4%
- inhibition at 10 µM [3]: 20.8%
- Activity [4]: Non-toxic
